The values that follow come from ChEMBL document CHEMBL1201862, “PubChem BioAssay data set” (2004).

Calls of active or inactive are those of the source.

One experiment has as its target Trypsin (Sus scrofa, UniProt P00761). Nature of the experiment: trypsin protease activity blockade – biochemical, quenched peptide fluorescence, cherry-pick, selectivity assay for Rce1 protease inhibitor project, dose response (AID 488789).
A further experiment deals with T1, CAAX prenyl protease 2 (Homo sapiens, UniProt Q9Y256).
T1 sequence (Q9Y256 whole entry): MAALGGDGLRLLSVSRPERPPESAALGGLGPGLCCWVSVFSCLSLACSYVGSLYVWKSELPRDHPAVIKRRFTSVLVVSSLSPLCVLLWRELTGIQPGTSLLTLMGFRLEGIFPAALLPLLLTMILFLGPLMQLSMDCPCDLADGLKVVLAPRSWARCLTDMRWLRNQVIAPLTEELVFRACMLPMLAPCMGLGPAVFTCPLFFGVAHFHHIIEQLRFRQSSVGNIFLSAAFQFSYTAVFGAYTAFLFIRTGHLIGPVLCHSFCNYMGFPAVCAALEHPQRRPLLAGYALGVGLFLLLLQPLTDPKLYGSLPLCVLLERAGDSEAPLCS
The experiment in a line: inhibition of Ras-converting CAAX protease Rce1 – biochemical, yeast membranes, quenched-peptide fluorescence, cherry-pick, dose response (AID 588849).

In experiment [1] the target is T2, Lysine-specific demethylase 4C (Homo sapiens, UniProt Q9H3R0).
T2 sequence (Q9H3R0 whole entry): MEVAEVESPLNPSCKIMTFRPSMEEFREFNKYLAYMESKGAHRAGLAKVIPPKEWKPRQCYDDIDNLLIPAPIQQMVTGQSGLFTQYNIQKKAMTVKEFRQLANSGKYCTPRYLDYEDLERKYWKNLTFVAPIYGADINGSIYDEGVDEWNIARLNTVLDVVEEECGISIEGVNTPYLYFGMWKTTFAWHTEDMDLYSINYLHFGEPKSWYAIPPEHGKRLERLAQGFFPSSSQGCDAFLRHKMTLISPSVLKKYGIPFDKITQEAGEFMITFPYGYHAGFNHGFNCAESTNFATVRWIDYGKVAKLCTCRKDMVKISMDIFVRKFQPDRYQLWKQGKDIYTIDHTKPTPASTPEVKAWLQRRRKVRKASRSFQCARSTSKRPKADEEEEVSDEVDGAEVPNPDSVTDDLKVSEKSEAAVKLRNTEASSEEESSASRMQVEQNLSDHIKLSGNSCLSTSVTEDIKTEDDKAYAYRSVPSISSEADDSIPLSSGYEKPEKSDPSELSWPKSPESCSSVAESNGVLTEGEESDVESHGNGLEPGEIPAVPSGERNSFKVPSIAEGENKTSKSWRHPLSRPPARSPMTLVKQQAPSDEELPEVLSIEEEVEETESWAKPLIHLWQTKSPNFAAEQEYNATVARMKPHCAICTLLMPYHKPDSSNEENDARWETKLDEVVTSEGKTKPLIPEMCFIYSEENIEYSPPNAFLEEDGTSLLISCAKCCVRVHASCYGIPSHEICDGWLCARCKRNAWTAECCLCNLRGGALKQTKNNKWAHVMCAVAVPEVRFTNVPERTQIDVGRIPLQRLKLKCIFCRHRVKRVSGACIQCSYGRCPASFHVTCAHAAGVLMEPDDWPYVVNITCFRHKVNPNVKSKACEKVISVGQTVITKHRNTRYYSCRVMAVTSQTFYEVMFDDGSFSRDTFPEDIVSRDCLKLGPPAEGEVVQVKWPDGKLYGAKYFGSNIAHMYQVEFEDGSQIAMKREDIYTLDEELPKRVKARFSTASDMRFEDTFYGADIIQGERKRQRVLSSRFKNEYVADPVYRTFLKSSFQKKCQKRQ
Nature of the experiment: inhibition of JMJD2C H3K9me3 demethylation – biochemical, DELFIA europium, cherry-picked samples, dose response (AID 488835). The class given is functional.

Experiment [2] has as its target Eukaryotic translation initiation factor 4E (Mus musculus, UniProt P63073). The experiment in a line: blockers of eIF4G binding by eIF4E – biochemical, TR-FRET, dose response (AID 855).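 Also: potency for disrupting eIF4E binding to eIF4GI seen as loss of FRET.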 The class given is functional. A general note: In TR-FRET formats the signal depends on donor and acceptor labels being close together.
The nature of experiment [3]: decrease of insulin promoter-GFP reporter – imaging, high-content screening, mouse beta cells (AID 1628). It is filed as functional. Particulars: MIN6.
In another experiment the test system is INS1. The experiment in a line: INS-1E survival protection against cytokine death – cell-based, luminescence, retest, dose response (AID 449756).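 Also: cell death triggered by IL-1 beta plus TNF-alpha plus IFN-gamma mixture; protective hits raise ATP signal compared with cytokine alone wells.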 Particulars: Rattus norvegicus. It is filed as functional.
Experiment [4] in a line: MIN6 cell viability loss – mouse insulinoma, cytotoxicity control, dose response (AID 2122).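 Also: confirmatory high-throughput counterscreen run to flag cytotoxic compounds.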 The class given is functional.
Experiment [5] is described as follows: non-specific 3'UTR reporter inhibition in Clone20-Shn3RL – cell-based, Renilla luciferase, cherry-picked, counter-screen for Shn3 inhibitor project, dose response (AID 624133). It is filed as functional. On the technique in general: A counterscreen serves to expose hits that act by an unwanted route or on another target.
Experiment [6] relates to HEK293. The experiment in a line: NOD2 signaling inhibitors in MDP-stimulated cells, cell-based, uHTS, luminescence (AID 2001). The class given is functional. To be noted: Homo sapiens.
A short description of experiment [7]: loss of viability in HepG2 cells – cell-based, CellTiter-Glo, cherry-picked, cytotoxicity control for Shn3 inhibitor project, dose response (AID 624134). It is filed as functional. (ATP-based viability assays read luminescence as a measure of living cells.)
Experiment [8] can be described thus: reduction of Shn3 3'UTR-driven luciferase in osteoblasts – cell-based, Clone20 osteoblasts, firefly luciferase, cherry-picked, dose response (AID 624132).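 Also: firefly luciferase luminescence from reporter carrying the Shn3 3'UTR in osteoblasts.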 The class given is functional.
Experiment [9] concerns HEK293. The experiment in a line: cells. The class given is functional, cell-based. To be noted: Homo sapiens.
Experiment [10] concerns HEK293. The experiment in a line: cells. It is filed as functional, cell-based. Particulars: Homo sapiens. This is another data set of the same source.
Experiment [11] deals with HEK293. Nature of the experiment: inhibition of NOD1-driven NF-kB reporter – cell-based, luminescence, uHTS, primary screen (AID 1578). The class given is functional. Particulars: Homo sapiens.
Experiment [12] deals with HEK293. Nature of the experiment: cells. To be noted: Homo sapiens. It is filed as functional, cell-based. This is another data set of the same source.
The target of experiment [13] is T3, Nuclear receptor subfamily 0 group B member 1 (Homo sapiens, UniProt P51843).
T3 sequence (P51843 whole entry): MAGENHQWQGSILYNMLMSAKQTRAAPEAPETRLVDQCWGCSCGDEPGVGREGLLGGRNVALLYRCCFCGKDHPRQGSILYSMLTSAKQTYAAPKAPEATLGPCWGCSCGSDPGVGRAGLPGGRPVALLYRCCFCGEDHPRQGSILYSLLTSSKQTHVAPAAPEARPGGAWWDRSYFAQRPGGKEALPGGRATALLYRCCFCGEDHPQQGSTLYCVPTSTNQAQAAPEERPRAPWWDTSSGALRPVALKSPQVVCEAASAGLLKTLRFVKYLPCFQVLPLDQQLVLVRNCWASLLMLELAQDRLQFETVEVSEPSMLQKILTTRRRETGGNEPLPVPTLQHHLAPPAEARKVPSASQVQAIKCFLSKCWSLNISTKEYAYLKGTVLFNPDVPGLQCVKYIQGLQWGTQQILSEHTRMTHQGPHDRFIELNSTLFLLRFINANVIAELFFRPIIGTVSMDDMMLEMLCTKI
The experiment in a line: Luminescence-based cell-based high throughput dose response assay for inhibitors of the orphan nuclear receptor subfamily 0, group B, member 1 (DAX1; NR0B1). [Related pubchem assays (depositor defined):AID504766, AID504790]. It is filed as functional.

In a further experiment the target is Genome polyprotein (dengue virus type 2, UniProt P29990). Nature of the experiment: flavivirus cap methylation enzyme inhibition – biochemical, confirmation dose response, primary screen (AID 588689). The class given is functional.
Genome polyprotein, sequence (P29990 2492-3391 limits assumed): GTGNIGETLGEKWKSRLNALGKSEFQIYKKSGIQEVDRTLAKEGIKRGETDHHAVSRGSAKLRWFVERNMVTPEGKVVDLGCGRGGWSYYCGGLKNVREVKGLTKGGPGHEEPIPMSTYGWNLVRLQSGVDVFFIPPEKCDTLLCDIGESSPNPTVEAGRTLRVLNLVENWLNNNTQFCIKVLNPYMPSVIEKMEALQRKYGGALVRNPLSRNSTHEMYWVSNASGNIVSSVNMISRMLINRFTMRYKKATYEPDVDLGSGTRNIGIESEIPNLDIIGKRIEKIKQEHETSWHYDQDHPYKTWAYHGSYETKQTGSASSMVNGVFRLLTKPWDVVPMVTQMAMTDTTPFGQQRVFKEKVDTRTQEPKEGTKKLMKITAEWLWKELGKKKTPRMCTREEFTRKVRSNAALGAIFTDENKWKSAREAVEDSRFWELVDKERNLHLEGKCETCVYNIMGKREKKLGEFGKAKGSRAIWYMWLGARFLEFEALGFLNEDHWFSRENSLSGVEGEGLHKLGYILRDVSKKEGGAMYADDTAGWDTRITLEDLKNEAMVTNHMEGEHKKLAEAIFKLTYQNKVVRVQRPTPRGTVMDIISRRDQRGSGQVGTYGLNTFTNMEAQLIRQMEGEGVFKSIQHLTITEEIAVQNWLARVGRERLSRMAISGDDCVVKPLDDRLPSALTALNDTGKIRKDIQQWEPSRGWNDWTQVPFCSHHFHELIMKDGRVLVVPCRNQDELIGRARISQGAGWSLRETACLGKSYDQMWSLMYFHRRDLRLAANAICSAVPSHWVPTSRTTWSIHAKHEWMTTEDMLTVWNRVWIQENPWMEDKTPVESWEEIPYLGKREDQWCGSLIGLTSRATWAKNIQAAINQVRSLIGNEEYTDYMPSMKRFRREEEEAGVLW

Eukaryotic translation initiation factor 4E, sequence (P63073 whole entry): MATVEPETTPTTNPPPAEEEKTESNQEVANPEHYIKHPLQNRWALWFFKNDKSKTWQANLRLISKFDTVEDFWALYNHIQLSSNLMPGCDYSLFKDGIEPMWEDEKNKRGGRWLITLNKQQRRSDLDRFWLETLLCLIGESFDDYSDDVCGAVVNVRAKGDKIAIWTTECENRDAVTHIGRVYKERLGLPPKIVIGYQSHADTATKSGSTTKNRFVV
Trypsin, sequence (P00761 whole entry): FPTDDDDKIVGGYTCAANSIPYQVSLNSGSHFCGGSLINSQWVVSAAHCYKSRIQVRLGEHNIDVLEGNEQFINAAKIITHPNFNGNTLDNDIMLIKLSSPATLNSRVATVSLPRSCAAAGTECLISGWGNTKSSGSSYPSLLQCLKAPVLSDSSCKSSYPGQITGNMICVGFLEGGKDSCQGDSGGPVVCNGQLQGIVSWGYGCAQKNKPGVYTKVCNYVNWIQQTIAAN

One may read the AC50 as the concentration at which the activity in the assay is half-maximal. Take `NS(=O)(=O)c1ccc(CCNC(=O)c2ccc3ccccc3n2)cc1`: the AC50 on Trypsin is 4.75 µM (active); on CAAX prenyl protease 2, 4.74 µM (active).

For the molecule `CCOc1cc(C=C2C(=O)NC(=O)NC2=O)cc([N+](=O)[O-])c1O`, the AC50 in [1] was 2.49 µM (active).

As a reminder, the IC50 is the concentration that gives 50% inhibition. For `COc1ccc(CC2C(=O)NC(=O)N(c3ccccc3)C2=O)c(OC)c1` (centres undefined), the IC50 in experiment [2] is > 64 µM (inactive). For the same molecule, the AC50 in experiment [1] was 7.62 µM (active).

For the molecule `O=[N+]([O-])c1ccc(N2CCN(C(S)=NCc3ccc(Cl)cc3)CC2)cc1`, the IC50 in experiment [3] is 1.85 µM (active); in experiment [4], 2.83 µM (active). In addition, in the experiment on INS1, the AC50 was 6.14 µM (active).

Take `COc1ccc(CNCC(=O)Nc2sccc2C#N)cc1`: the AC50 in experiment [1] is 25 µM (active).

What is called EC50 is the concentration giving half of the maximal effect. Turning to `CCN1CCN(Cc2ccc(NC(=O)c3ccc(C)c(NC(=O)C(=O)c4c[nH]c5ccccc45)c3)cc2C(F)(F)F)CC1`, the IC50 in [3] is 2.15 µM (active); with HEK293 [6], 13.1 µM (inactive); in the experiment on HEK293 [9], 18.5 µM (active); with HEK293 [10], 4.96 µM (active); in experiment [4] it was 1.09 µM (active). Further, the AC50 in experiment [5] is 3.42 µM (active); in [7] it was 9.8 µM (active); in [8], 7.49 µM (active). Further, the EC50 in the experiment with HEK293 [11] is 17.2 µM (active).

As to `CCN(CC)N=Nc1cccc(NC(C)=O)c1`, the IC50 (with HEK293 [12]; in [13]) was > 67.5 µM (inactive) in each case.

Turning to `CCOc1cc(/C=C2\C(=O)NC(=O)N(C)C2=O)cc([N+](=O)[O-])c1O`, the half-maximal inhibitory concentration (IC50) was 19.9 µM (active) on Genome polyprotein, 51.7 µM (inactive) in the experiment with HEK293 [12] and > 67.5 µM (inactive) in [13].

As for `O=C(O)c1ccc(N/N=C/c2ccc(-c3ccccc3Cl)o2)cc1`, at CAAX prenyl protease 2, the half-maximal activity concentration (AC50) was 54.5 µM (active).
